# Like-named read-outs stand apart in the source and are kept apart here. Marks after values point to notes of the source that are not given here. Where a SMILES comes first, the peptide text is derived from it. Where no end group is shown, it is not given here. [ ]: non-standard residue; d: D form. Phe(ol) = N[C@H](CO)Cc1ccccc1; Dab = NCC[C@H](N)C(=O)O; Dap = NC[C@H](N)C(=O)O; Aib = CC(C)(N)C(=O)O
# Tests used:
# [1] = system: S. mutans Ingbritt
# From the text: (§1) The bacterial strains; Fusobacterium nucleatum ATCC 25586, Streptococcus mutans Ingbritt, Staphylococcus aureus (MSSA) ATCC 29213; Staphylococcus aureus (MRSA) ATCC 43300; Enterococcus faecalis ATCC 29212; Enterobacter aerogenes ATCC 13048; Pseudomonas aeruginosa strain PAO1-LAC, ATCC 47085; Klebsiella pneumoniae ATCC 13883; Acinetobacter baumannii strain 2208, ATCC 19606; Escherichia coli ATCC 25922 lyophilised or glycerol stocks were obtained from the culture collection of the Oral Health Cooperative Research Centre, The Melbourne Dental School, University of Melbourne, Australia. These strains were selected for this study as they are widely used in antimicrobial studies and are considered to be important pathogens and major targets for antibiotic resistant studies. Bacteria were grown aerobically and maintained by passage at ambient temperature (E. coli, K. pneumoniae, A. baumannii and S. aureus strains) or at 37°C (P. aeruginosa, E. faecalis and E. aerogenes) on horse blood agar (10% v/v defibrinated horse blood, 4.4% w/v Oxoid Blood Agar Base No. 2). S. mutans and F. nucleatum were grown anaerobically (MK3 anaerobic workstation, Don Whitley Scientific Limited, England) and maintained by passage at 37°C on Todd Hewitt agar (3.6% w/v Oxoid Todd-Hewitt Broth, 1.5% w/v sucrose, 1.5% w/v BactoTM Agar, 0.8% w/v Oxoid Yeast Extract) or horse blood agar, respectively. For the antimicrobial peptide assays a 20 mL starter culture was produced by taking single colonies from blood or Todd Hewitt agar plates, respectively, to inoculate either: Luria Broth (LB; 1% w/v BactoTM Tryptone, 1% w/v NaCl, 0.5% w/v Oxoid Yeast Extract, pH 7.5, Thermo Scientific Pty, Ltd, Sydney, Australia) for bacteria; E. coli, K. pneumoniae, P. aeruginosa, A. baumannii, E. faecalis, E. aerogenes and S. aureus which were grown aerobically at 37°C, or Todd Hewitt broth (3.6% w/v Oxoid Todd-Hewitt Broth, 1.5% w/v sucrose, 0.8% w/v Oxoid Yeast 9 Extract) for S. mutans, or Brain Heart Infusion broth (BHI; 3.7% w/v Oxoid BHI, 0.05% w/v L-cysteine) for F. nucleatum which were both grown anaerobically at 37°C. After overnight incubation, 0.5–2.0 mL of the starter culture was used to inoculate the appropriate fresh broth (200 mL) and growth monitored at 650 nm using a spectrophotometer (model 275E; Perkin-Elmer, Sydney, Australia) with culture purity checked by microscopic examination and culture. Bacteria were harvested during late exponential growth phase and viability and bacteria/mL determined using a BacLight viability kit (Invitrogen, Sydney, Australia) and a Quanta SC-MPL flow cytometer (Beckman coulter Pty, Ltd, Sydney, Australia).
# (§2) Antibacterial assays were undertaken to determinate the minimum inhibitory concentration (MIC), minimum bactericidal concentration (MBC) and minimum membrane disruptive concentration (MDC) of each of the antimicrobial peptides (AMP) and AMP analogues (S1 Table). For each bacterim a stock solution (2.5 × 10^6 cells/mL) in the respective media was made and an aliquot incubated with AMPs within 15 minutes from viable cell count and stock preparation. All AMPs were dissolved in DMSO and a 500 μM stock solution prepared by adding the respective media and serial dilutions (250–0.244 μM) of the AMP in media (100 μL/well) made just prior addition of bacteria. […] One hundred microliter aliquots of the bacterial stock solution (2.5 × 10^5 cells/well) were added to the AMP serial dilutions and incubated at 37°C for 90 min. Assay preparation and incubations were conducted in aerobic or anaerobic conditions dependent on the bacteria. Bacteria were also incubated in the absence of AMP to serve as a growth control for the assay. After the 90 minute incubation period the antimicrobial activity (MIC, MBC and MDC) was determined as follows;
# For determination of MBC, the CLSI protocol was followed, with the modifications being that due to the rapid action of the AMPs the assay incubation time was shortened from 16–20 hours to 90 minutes.
# [2] = system: S. mutans Ingbritt; assay: MDC, flow cytometry Syto9/PI membrane disruption assay; assay type: cell-based, Streptococcus mutans; settings: 90 min peptide/bacteria incubation, average of 3 assays ± SD
# From the text: as §1
# Antibacterial assays were undertaken to determinate the minimum inhibitory concentration (MIC), minimum bactericidal concentration (MBC) and minimum membrane disruptive concentration (MDC) of each of the antimicrobial peptides (AMP) and AMP analogues (S1 Table). For each bacterim a stock solution (2.5 × 10^6 cells/mL) in the respective media was made and an aliquot incubated with AMPs within 15 minutes from viable cell count and stock preparation. All AMPs were dissolved in DMSO and a 500 μM stock solution prepared by adding the respective media and serial dilutions (250–0.244 μM) of the AMP in media (100 μL/well) made just prior addition of bacteria. […] After the 90 minute incubation period the antimicrobial activity (MIC, MBC and MDC) was determined as follows;
# [3] = system: S. mutans Ingbritt; remark: listed apart in the source
# From the text: as §1, §2
# (§3) For MIC the CLSI broth microdilution assay was followed as we have previously described.
# [4] = system: F. nucleatum ATCC 25586
# From the text: as §1, §2, §3
# [5] = system: sheep red blood cells; assay: Hemolysis assay; assay type: cell-based; settings: for Therapeutic Index (hemolysis): HC50/MDC50 (F. nucleatum), given as x : 1
# Method: Fresh sheep red blood cells in Alsever’s solution (RBCs, Equicell, Victoria, Australia) were diluted 1 in 20 in PBS (pH 7.4), pelleted by centrifugation, and washed three times in PBS (1000 g, 10 min). The RBCs were counted using a cell counter (Coulter Particle Counter Z series, Beckman Coulter) and diluted to a final concentration of 2 × 10^7 cells/mL. […] Following incubation, the RBCs were pelleted centrifuged (1000 g, 10 min) and the amount of haemoglobin in 100 μL aliquots determined by measuring the absorbance at 405 nm using a microplate reader (PerkinElmer 1420 Multilabel Counter VICTOR3). Positive and negative controls for hemolysis were taken as RBC lysed with 0.5% Triton X-100 (1:1 v/v) and RBC suspension in PBS, respectively. The percentage of hemolysis was calculated using the following formula: % Hemolysis = [(A405 test sample—A405 negative control) / (A405 positive control—A405 negative control)] × 100
# The percentage hemolysis was plotted against peptide concentration and linear regression analysis was used to determine the hemolytic concentration needed to lyse 50% (HC50) of RBCs.
# [6] = S. mutans Ingbritt, 90 min peptide/bacteria incubation, CFU on agar, ≥ 99.9% reduction, average of 3 assays ± SD
# [7] = S. mutans Ingbritt, 90 min peptide/bacteria incubation at 37°C, then growth at OD650, average of 3 assays ± SD
# [8] = F. nucleatum ATCC 25586, 2.5 × 10^5 cells/well, 90 min peptide/bacteria incubation at 37°C, then growth at OD650, average of 3 assays ± SD
# [9] = sheep RBCs 2 × 10^7 cells/mL in PBS pH 7.4, 2 h at 37°C, 5% CO2, A405, linear regression, maximum peptide concentration = 1000 µM
Compound,"MBC [1, 6]",MDC [2],"MIC [3, 7]","MIC [4, 8] [µM]",MBC ([1]; Ingbritt),Therapeutic Index (hemolysis) [5],Hemolysis (HC50) ([5]; pH 7.4) [µM],"MIC ([3]; Ingbritt, 24 h)","MIC ([4]; ATCC 25586, 24 h)","MBC ([1]; S. mutans Ingbritt, 90 min peptide/bacteria incubation, CFU on agar, ≥ 99.9% reduction, average of 3 assays ± SD, listed as Native) [µM]","Hemolysis (HC50) [5, 9] [µM]","MIC ([3]; S. mutans Ingbritt, 90 min peptide/bacteria incubation at 37°C, then growth at OD650, average of 3 assays ± SD, listed as Native) [µM]","MIC ([4]; F. nucleatum ATCC 25586, 2.5 × 10^5 cells/well, 90 min peptide/bacteria incubation at 37°C, then growth at OD650, average of 3 assays ± SD, listed as Native) [µM]"
CC(=O)NC(C)(C)C(=O)N1CCC[C@H]1C(=O)NC(C)(C)C(=O)N[C@@H](C)C(=O)NC(C)(C)C(=O)N[C@@H](C)C(=O)N[C@@H](CCC(N)=O)C(=O)NC(C)(C)C(=O)N[C@H](C(=O)NC(C)(C)C(=O)NCC(=O)N[C@@H](CC(C)C)C(=O)NC(C)(C)C(=O)N1CCC[C@H]1C(=O)N[C@H](C(=O)NC(C)(C)C(=O)NC(C)(C)C(=O)N[C@@H](CCC(=O)O)C(=O)N[C@@H](CCC(N)=O)C(=O)N[C@H](CO)Cc1ccccc1)C(C)C)C(C)C [Alamethicin] (Ac-[Aib]P[Aib]A[Aib]AQ[Aib]V[Aib]GL[Aib]PV[Aib][Aib]EQ[Phe(ol)]; N-terminus assumed),39.8 ± 0.3 µM,41.9 ± 8.3 µM,29.4 ± 8.2 µM,22.6 ± 12.7,,,,,,,,,
CC[C@H](C)[C@H](NC(=O)CN)C(=O)NCC(=O)N[C@@H](CCN)C(=O)N[C@@H](Cc1ccccc1)C(=O)N[C@@H](CC(C)C)C(=O)N[C@@H](Cc1c[nH]cn1)C(=O)N[C@@H](CO)C(=O)N[C@@H](C)C(=O)N[C@@H](CCN)C(=O)N[C@@H](CCN)C(=O)N[C@@H](Cc1ccccc1)C(=O)NCC(=O)N[C@@H](CCN)C(=O)N[C@@H](C)C(=O)N[C@@H](Cc1ccccc1)C(=O)N[C@H](C(=O)NCC(=O)N[C@@H](CCC(=O)O)C(=O)N[C@H](C(=O)N[C@@H](CCSC)C(=O)N[C@@H](CC(N)=O)C(=O)N[C@@H](CO)C(N)=O)[C@@H](C)CC)C(C)C [Magainin-Dab] (H-GIG[Dab]FLHSA[Dab][Dab]FG[Dab]AFVGEIMNS-NH2; N-terminus assumed),,>200^c μM,,6.3 ± 0.5,>200^c μM,>182 : 1,>1000,>200^c μM,,,,,
CC[C@H](C)[C@H](NC(=O)CN)C(=O)NCC(=O)N[C@@H](CN)C(=O)N[C@@H](Cc1ccccc1)C(=O)N[C@@H](CC(C)C)C(=O)N[C@@H](Cc1c[nH]cn1)C(=O)N[C@@H](CO)C(=O)N[C@@H](C)C(=O)N[C@@H](CN)C(=O)N[C@@H](CN)C(=O)N[C@@H](Cc1ccccc1)C(=O)NCC(=O)N[C@@H](CN)C(=O)N[C@@H](C)C(=O)N[C@@H](Cc1ccccc1)C(=O)N[C@H](C(=O)NCC(=O)N[C@@H](CCC(=O)O)C(=O)N[C@H](C(=O)N[C@@H](CCSC)C(=O)N[C@@H](CC(N)=O)C(=O)N[C@@H](CO)C(N)=O)[C@@H](C)CC)C(C)C [Magainin-Dap] (H-GIG[Dap]FLHSA[Dap][Dap]FG[Dap]AFVGEIMNS-NH2; N-terminus assumed),,>200^c μM,,,>200^c μM,>67 : 1,>1000,>200^c μM,18.4±9.7^c μM,,,,
GIGKFLHSAKKFGKAFVGEIMNS-NH2 [Magainin II],109 ± 20.2 µM,,109.3 ± 20.4 µM,10.2 ± 1.5,,,,,,117.1 ± 2.3,479.5 ± 42.9,123.4 ± 9.2,10.1 ± 0.6
GIGRFLHSARRFGRAFVGEIMNS-NH2 [Magainin-Arg],,42.5±5.7^c μM,,,37.3±1.9^c μM,100.8 : 1,251.9 ± 48.2,41.8±6.8^c μM,2.5±0.3^c μM,,,,
GIGXFLHSAXXFGXAFVGEIMNS-CONH2 [Magainin-Orn],>200^c μM,>200^c μM,>200^c μM,13.1 ± 0.5,,126.5 : 1,,,,,721.1 ± 65.3,,
